Consider 29 compounds from ChEMBL document CHEMBL1137178, “Design, synthesis and antimalarial activity of a glyoxylylhydrazone library” (Bioorg Med Chem Lett, 2004).

Assay [1] concerns Plasmodium falciparum. The assay can be described thus: Growth inhibition against Plasmodium falciparum FcB1 at 200 nM. Type of assay: functional.
The target in assay [2] is T1, Histidine-rich protein PFHRP-II (Plasmodium falciparum) (UniProt P05227).
T1 sequence (whole entry): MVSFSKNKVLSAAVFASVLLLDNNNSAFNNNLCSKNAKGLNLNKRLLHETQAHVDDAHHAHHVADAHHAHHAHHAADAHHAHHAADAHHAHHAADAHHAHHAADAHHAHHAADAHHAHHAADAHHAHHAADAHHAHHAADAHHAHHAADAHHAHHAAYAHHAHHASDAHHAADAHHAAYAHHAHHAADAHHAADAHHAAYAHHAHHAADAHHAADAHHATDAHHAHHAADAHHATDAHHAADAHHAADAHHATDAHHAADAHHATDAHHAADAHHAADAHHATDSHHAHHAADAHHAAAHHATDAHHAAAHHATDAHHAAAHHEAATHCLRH
Briefly: In vitro inhibition of beta-hematin formation in Plasmodium falciparum at 100 uM. The assay is classed as functional.

Assay [3] concerns Plasmodium falciparum. Briefly: Growth inhibitory concentration against chloroquine-resistant Plasmodium falciparum. Type of assay: functional, organism-based.
The subject of assay [4] is MRC5. The assay can be described thus: Selectivity index measured as CC50/IC50. Type of assay: functional, Homo sapiens.
Assay [5] deals with Plasmodium falciparum. The assay can be described thus: Inhibitory concentration against chloroquine-resistant Plasmodium falciparum FcB1. The assay is classed as functional, organism-based.
Assay [6] deals with MRC5. Briefly: Cytotoxic effect on human diploid embryonic lung cell line (MRC-5) using the colorimetric MTT assay. The assay is classed as functional. For orientation: Formazan colour is commonly taken as a measure of viable cells.

Where only a bound is given, the exact number is not on record here.

Broadly, the inhibition is how much of the control response was suppressed. Read a high inhibition as a response far below the control. Consider `O=C(/C=N/O)NCCCCCCCNc1ccnc2cc(Cl)ccc12`, for which, in the assay on Plasmodium falciparum [1], the inhibition at 0.2 µM came to 10%. The compound further came in with an inhibition in assay [2] of 6%.
On the same counts, the results for `Cc1cc(N/N=C/C(=O)NCCCCCCCNc2ccnc3cc(Cl)ccc23)nc(C)n1` are 0% and 19%.
In general, IC50 refers to the point on the concentration scale where inhibition reaches its midpoint. Lower therefore signals higher potency. As a reminder, the CC50 is the concentration at which the toxic effect on the cells reaches its halfway point. In the case of `O=C(/C=N/Nc1c(Cl)cc(C(F)(F)F)cc1Cl)NCCCCCCCNc1ccnc2cc(Cl)ccc12`, the values for the IC50 in the assay with Plasmodium falciparum [3] and with Plasmodium falciparum [5] were 88.7 nM and 16 nM, respectively. Besides, the SI with MRC5 [4] worked out at 104. Further, it took 9200 nM to reach half-maximal cytotoxicity in the assay with MRC5 [6] (CC50). The compound also displayed an inhibition in assay [2] of 7%.
The compound `O=C(/C=N/Nc1ccc(F)cc1F)NCCCCCCCNc1ccnc2cc(Cl)ccc12` gave an IC50 with Plasmodium falciparum [5] of 105 nM. The compound also yielded an inhibition in assay [2] of 0%.
`CN(/N=C/C(=O)NCCCCCCCNc1ccnc2cc(Cl)ccc12)c1ncccc1[N+](=O)[O-]` returned an inhibition at 0.2 µM in the assay with Plasmodium falciparum [1] of 3%. For the same compound, the inhibition in assay [2] was determined as 18%.
For the compound `CC(C)(C)c1ccc(N/N=C/C(=O)NCCCCCCCNc2ccnc3cc(Cl)ccc23)cc1`, in the assay with Plasmodium falciparum [1], 0.2 µM produced 32% inhibition. This compound also had an inhibition in assay [2] of 1%.
On the same counts, the results for `CC(C)(C)O/N=C/C(=O)NCCCCCCCNc1ccnc2cc(Cl)ccc12` are 14% and 0%.
Taken in the same sequence, the figures for `CO/N=C/C(=O)NCCCCCCCNc1ccnc2cc(Cl)ccc12` were 11% and 4%.
Taken in the same sequence, the figures for `CCO/N=C/C(=O)NCCCCCCCNc1ccnc2cc(Cl)ccc12` were 11% and 0%.
`Cc1cc(N/N=C/C(=O)NCCCCCCCNc2ccnc3cc(Cl)ccc23)nc2c1c(C)nn2C`: the half-maximal inhibitory concentration (IC50) in the assay on Plasmodium falciparum [3] is 63.9 nM; with Plasmodium falciparum [5], 30 nM. Also, in the assay with MRC5 [4], the SI is 28. In the assay with MRC5 [6], this compound registered a CC50 of 1800 nM. This compound also gave an inhibition in assay [2] of 0%.
`CCOCC(=O)N/N=C/C(=O)NCCCCCCCNc1ccnc2cc(Cl)ccc12` yielded an inhibition at 0.2 µM with Plasmodium falciparum [1] of 59%. The inhibition in assay [2] was 12%.
For the compound `CCN(CC)CCCC(C)Nc1ccnc2cc(Cl)ccc12` (centres undefined) [CHLOROQUINE], the CC50 with MRC5 [6] was determined as 50000 nM. In assay [2], the inhibition is 55%.
Consider `COC(=O)c1sccc1N/N=C/C(=O)NCCCCCCCNc1ccnc2cc(Cl)ccc12`, for which at 0.2 µM the inhibition in the assay on Plasmodium falciparum [1] was 13%. Besides, the inhibition in assay [2] came to 11%.
Consider `O=C(/C=N/Nc1ccccc1)NCCCCCCCNc1ccnc2cc(Cl)ccc12`, for which the inhibition at 0.2 µM in the assay with Plasmodium falciparum [1] is 0%. Moreover, the inhibition in assay [2] was 0%.
For the compound `O=C(/C=N/NCc1ccccc1)NCCCCCCCNc1ccnc2cc(Cl)ccc12`, the IC50 in the assay with Plasmodium falciparum [3] is 161 nM; in the assay with Plasmodium falciparum [5], 35 nM. The SI with MRC5 [4] was 91. In the assay with MRC5 [6], the CC50 worked out at 14600 nM. In assay [2], this compound registered an inhibition of 0%.
Regarding `O=C(/C=N/OCc1c(F)c(F)c(F)c(F)c1F)NCCCCCCCNc1ccnc2cc(Cl)ccc12`, the inhibition at 0.2 µM in the assay on Plasmodium falciparum [1] was 33%. This compound also displayed an inhibition in assay [2] of 0%.
Taken in the same sequence, the figures for `O=C(/C=N/Nc1nc(-c2cccs2)ns1)NCCCCCCCNc1ccnc2cc(Cl)ccc12` were 8% and 19%.
`Cc1ccc(N/N=C/C(=O)NCCCCCCCNc2ccnc3cc(Cl)ccc23)c(C)c1` registered an IC50 in the assay with Plasmodium falciparum [5] of 86 nM. Also, the inhibition in assay [2] was found to be 8%.
On the same counts, the results for `O=C(/C=N/Nc1cnc2ccccc2n1)NCCCCCCCNc1ccnc2cc(Cl)ccc12` are 90 nM and 0%.
Turning to `O=C(/C=N/Nc1ccc(Cl)nn1)NCCCCCCCNc1ccnc2cc(Cl)ccc12`, in the assay with Plasmodium falciparum [5], the IC50 was 180 nM. Also, the inhibition in assay [2] stood at 0%.
Taken in the same sequence, the figures for `O=C(/C=N/Nc1ccc(F)c(Cl)c1)NCCCCCCCNc1ccnc2cc(Cl)ccc12` were 200 nM and 0%.
Take `O=C(/C=N/OCc1ccc([N+](=O)[O-])cc1)NCCCCCCCNc1ccnc2cc(Cl)ccc12`: the IC50 in the assay with Plasmodium falciparum [3] was 62.3 nM; in the assay on Plasmodium falciparum [5] it was 5 nM. In the assay with MRC5 [4], this compound displayed an SI of 27. For the same compound, the CC50 with MRC5 [6] came to 1700 nM. Also, the inhibition in assay [2] came out at 0%.
In the assay on Plasmodium falciparum [5], `C=CCO/N=C/C(=O)NCCCCCCCNc1ccnc2cc(Cl)ccc12` returned an IC50 above 500 nM. This compound displayed an inhibition in assay [2] of 3%.
In the assay with Plasmodium falciparum [5], `CC(C)(C)N/N=C/C(=O)NCCCCCCCNc1ccnc2cc(Cl)ccc12` returned an IC50 of 60 nM. The compound further registered an inhibition in assay [2] of 0%.
As for `O=C(/C=N/OCc1ccccc1)NCCCCCCCNc1ccnc2cc(Cl)ccc12`, in the assay on Plasmodium falciparum [1], the inhibition at 0.2 µM came to 29%. This compound returned an inhibition in assay [2] of 0%.
For `O=C(/C=N/Nc1ccc([N+](=O)[O-])cc1[N+](=O)[O-])NCCCCCCCNc1ccnc2cc(Cl)ccc12`, the IC50 in the assay on Plasmodium falciparum [3] stood at 47.3 nM; in the assay on Plasmodium falciparum [5] it was 13 nM. The compound further gave an SI in the assay on MRC5 [4] of 235. In the assay on MRC5 [6], this compound yielded a CC50 of 11100 nM. This compound showed an inhibition in assay [2] of 25%.
As for `COc1ccc2nc(N/N=C/C(=O)NCCCCCCCNc3ccnc4cc(Cl)ccc34)nnc2c1`, the IC50 was 73.7 nM in the assay with Plasmodium falciparum [3] and 45 nM in the assay with Plasmodium falciparum [5]. In addition, the SI in the assay with MRC5 [4] was 34. This compound also registered a cytotoxic concentration (CC50) in the assay with MRC5 [6] of 2500 nM. For the same compound, in assay [2], the inhibition came to 28%.
On the same counts, the results for `O=C(/C=N/Nc1ccnc2cc(Cl)ccc12)NCCCCCCCNc1ccnc2cc(Cl)ccc12` are 19.3 nM, 7 nM, 73, 1400 nM and 0%.
Consider `O=C(/C=N/Nc1ccc(Cl)cc1Cl)NCCCCCCCNc1ccnc2cc(Cl)ccc12`, for which 0.2 µM produced 0% inhibition in the assay on Plasmodium falciparum [1]. Also, the inhibition in assay [2] was determined as 12%.
